From ChEMBL document CHEMBL1128929, “A novel nitro-substituted seco-CI: Application as a reductively activated adept prodrug” (Bioorg Med Chem Lett, 1996)

Tests used:
[1] = Compound was evaluated for its inhibitory activity against UV4 cell in the presence of drug along with NADH and enzyme(Escherichia coli B nitroreductase); assay type: functional, cell-based, Cricetulus griseus
[2] = Ratio of IC50 (drug alone)/IC50(drug+NADH+enzyme); assay type: functional
[3] = Compound was evaluated for its inhibitory activity against UV4 cell in the presence of drug alone.; assay type: functional, cell-based, Cricetulus griseus
[4] = Compound was evaluated for its inhibitory activity against UV4 cell in the presence of drug and NADH.; assay type: functional, cell-based, Cricetulus griseus

For `COc1cc2cc(C(=O)N3CC(CCl)c4ccc(NC(=O)OCc5ccc([N+](=O)[O-])cc5)cc43)[nH]c2c(OC)c1OC` (configuration not stated), the IC50 [1] was 598 nM, the Ratio [2] was 0.9 and the IC50 [3] was 15000 nM. For the same compound, the IC50 [4] was 11300 nM.

`COc1cc2cc(C(=O)N3CC(CCl)c4ccc([N+](=O)[O-])cc43)[nH]c2c(OC)c1OC` (configuration not stated) showed an IC50 [1] of 6.4 nM, a Ratio [2] of 402 and an IC50 [3] of 2310 nM. The IC50 [4] was 237 nM.

`COc1cc2cc(C(=O)N3CC(CCl)c4ccc(N)cc43)[nH]c2c(OC)c1OC` (configuration not stated) gave an IC50 [1] of 27.8 nM, a Ratio [2] of 23.2 and an IC50 [3] of 23.6 nM. The IC50 [4] was 26.6 nM.
